Test results as given in patent publication US7655392B2, “Quenching methods for red blood cell inactivation process” (priority 2004, dated 2010).
Read-outs that look alike come from different tables or passages of the source.

Assays:
[1] = pH of quencher stock and of RBC mixture; format: physicochemical; conditions: for pH of stock quencher: room temperature
Protocol: The effect of various quenching conditions on the pH of a red blood cell composition was determined for various treatment conditions. The quencher solutions were prepared at a concentration of 600 mM in 8% dextrose monohydrate. […] Glutathione was assessed at 2 mM (acidic) or 20 mM (2 eq. of base). […] The pH of the quencher solution, either unmodified or neutralized, was measured using a standard Epoxy Calomel electrode (Beckman Instruments) at room temperature. […] The samples were mixed and the pH at room temperature was measured using the same electrode as described above.
In these, the appropriate amount of 600 mM stock was added, mixed with an appropriate volume of 8% dextrose to provide the same volume addition to each RBC sample where in one study, with varied glutathione concentrations, the pH was measured after adding glutathione and after adding PIC-1. […] Similar samples were also assessed for the inactivation of S. epidermidis. […] For gel card analysis, after incubation, the RBC were washed in BBS and were diluted in BBS to a final hematocrit of 4%. A 25 μL aliquot of each was mixed with 15 μL of rabbit polyclonal anti-acridine sera diluted either 1:4 or 1:100 in BBS and the mixture was incubated at 37° C. for 30 minutes. The cells were subsequently washed with 1.5 mL BBS. After washing was complete, the cells were mixed with goat anti-rabbit Fab′2 fragment anti H+L chains (1:4 dilution in PBS) and incubated at 37° C. for 30 minutes.

red blood cells = format: cell-based; conditions: 20 mM Cys+2 eq NaOH only, no PIC-1
Protocol: In another assay, the rabbit polyclonal sera may be reacted with treated red blood cells. After washing off unbound antibody, a FITC labeled goat anti-rabbit Fab′2 fragment (anti H+L chains, Caltag) is added. The binding of FITC label to the red blood cells correlates with the amount of acridine bound to the red blood cell surface, and is assessed by FACScan™ analysis (Becton, Dickinson and Co., NJ). The relative modification of the red blood cells is determined from the FACScan™ mean fluorescence value.
A 20 mL sample of leukoreduced whole blood (Blood Source, Sacramento, Calif.) was centrifuged at 4,100×g for 5 minutes at room temperature in each of four 50 mL centrifuge tubes. The supernatant was removed from each tube to provide red cell concentrate (RCC). […] For each washed RCC, cells were resuspended in 5 mL of the solution used for washing. This is now referred to as the RBC test sample. […] These samples were incubated for 20 hours at room temperature. After incubation, the RBC were washed in BBS (Blood Bank Saline, 0.9% saline, unbuffered, Fisher Scientific) and were diluted to a final hematocrit of 4%. A 25 μL aliquot of each was mixed with 15 μL of rabbit polyclonal anti-acridine sera diluted 1:100 in BBS and the mixture was incubated at 37° C. for 30 minutes. The cells were subsequently washed with 1.5 mL BBS. After washing was complete, the cells were mixed with 50 μL of FITC labeled goat anti-rabbit Fab′2 fragment (1:64 dilution in BBS) and incubated at 37° C. for 30 minutes. […] Note that the quenching improves as glutathione is neutralized with increasing amounts of sodium hydroxide.
The FACScan analysis of the binding of rabbit anti-acridine sera to treated red cells was used to assess a variety of quenching conditions. […] The tables represent data from two different experiments, each with samples treated under standard conditions or with 20 mM neutralized glutathione. […] The data within an experiment provides the relative efficacy of the various treatments. Because the assay may depend on the lot of red blood cells used, the absolute values of mean fluorescence may vary from one study to the next, such that relative values should only be compared within a given experiment. […] Neutralized glutathione at 20 mM results in close to background levels.
An untreated control sample as well as a standard sample (co-addition of 2 mM acidic glutathione with 0.2 mM PIC-1) were also assessed.
Full units of red cell concentrates (Interstate Blood Bank, Inc., Memphis, Tenn.) were leukoreduced. A volume of 200 mL of this RCC (80% hematocrit) was mixed with 94 mL of Erythrosol or 100 mL of Adsol (Baxter Healthcare Corp., Deerfield, Ill.) as control (unit 1). A volume of 20 mL 8% dextrose was used to dissolve PIC-1 (mg) and acid glutathione (mg) and added to one unit to provide 0.2 mM PIC-1 and 2 mM glutathione (unit 2). […] For the glutathione, 1.2 mL of 10 N NaOH was added (2 equivalents). The PIC-1 was mixed with the unit, followed 1 minute later (unit 3) or 5 minutes later (unit 4) by glutathione. For unit 5, neutralized glutathione was mixed first, followed 10 minutes later by the PIC-1. […] All units were mixed by grasping the ends of the blood bag and mixing in a FIG. 8 motion 30 times. These were then incubated at room temperature for 20 hours total. A compound adsorption device (CAD), comprising a polymeric resin contained within a mesh pouch, was used for all but the control sample. This device is intended to remove residual PIC-1, PIC-1 breakdown products, and glutathione from the samples. Samples were incubated for 8 hours, then transferred to a second blood bag containing the CAD and incubated for an additional 12 hours. Following the room temperature incubation, samples were transferred to a refrigerator (4° C.) and stored up to 43 days.

[2] = tested on: Staphylococcus epidermidis; experiment: Inactivation of Staphylococcus epidermidis in RBC (colony count); conditions: Table 5C: 20 mM cysteine+1 eq base only, no PIC-1
Protocol: Whole blood (Blood Source, Sacramento, Calif.) was used to prepare a red blood cell (RBC) composition by centrifuging to provide packed RBC (34 mL of approximately 90% hematocrit), then adding 17 mL Erythrosol to a hematocrit of approximately 60%. Erythrosol is a red blood cell additive (Baxter Healthcare Corp., Deerfield, Ill.) that may be prepared by combining sodium citrate dihydrate (7.82 g); sodium acid phosphate dihydrate (0.73 g); sodium phosphate dihydrate (3.03 g); adenine (0.22 g); mannitol (7.74 g); and glucose (9 g) in 1 liter of distilled water. The bacterial preparation was then added ( 1/100th of the total volume) to the RBC/Erythrosol to provide contaminated RBC. The contaminated RBC was divided into several samples and treated according to Table 2, where PIC-1 is β-alanine, N-(acridin-9-yl), 2-[bis(2-chloroethyl)amino]ethyl ester. The PIC-1 and glutathione (Aldrich, St. Louis, Mo.) were dissolved in a solution of 8% dextrose monohydrate at about 15× the desired concentration in the final red blood cell composition when added together, or 30× when added separately. […] For separate addition using 20 mM neutralized glutathione, PIC-1 is prepared by dissolving 7.6 mg in 2.5 mL of 8% dextrose, glutathione is prepared by dissolving 460 mg in 1.9 mL of 8% dextrose and mixing with 0.6 mL of 5N NaOH, then adding 165 μL of each solution to 4.67 mL RBC in the appropriate order. Following treatment, the samples were incubated for 2 hours, and 100 μL of each was serially diluted and plated on LB plates. These were incubated overnight at 37° C. in order to assess bacterial growth. The bacterial titer was determined by counting colonies on the plates and based on the dilution of the plate, the titer was determined. For example, with 10-fold serial dilutions, 30 colonies counted on the 5th dilution of the original solution, where 0.1 mL are plated, would indicate an initial titer of (30×10^5)/0.1=3×10^7, or 7.47 log. […] Note that for most samples in Table 2A the PIC-1 and glutathione were formulated together. […] The study was repeated with sequential addition of the two components, as indicated in Table 2B (time delay of 0 indicates they were added in the same solution).
Additional studies were done using S. epidermidis, where the overnight culture was used without dilution. […] PIC-1 is at 0.2 mM in all samples.
For these samples, the NaOH stock was prepared at 10N and appropriate volumes of the various components were used following the procedures above. Standard conditions and/or 20 mM neutralized glutathione (GSH) were run for comparison.

Serratia marcescens = format: cell-based; conditions: Table 5B: 20 mM Cys+2 eq base only, no PIC-1
[3] = 600 mM in 8% dextrose + 1 eq. base
[4] = Table 10: RBC + 20 mM quencher + 1 eq. base + 0.2 mM PIC-1
[5] = Table 10: RBC + 20 mM quencher + 2 eq. base + 0.2 mM PIC-1

CC(=O)N[C@@H](CS)C(=O)O [N-acetyl cys, N-acetyl cysteine]
pH of stock quencher [1, 3]: 6 | pH of final mixture [1, 4]: 6.7

N[C@@H](CS)C(=O)O [cysteine]
mean fluorescence (red blood cells; Table 9A: control): 1.9 | mean fluorescence (red blood cells; Table 9B: control): 1.99 | Log S. epidermidis reduction [2]: 0.1 Log | Log S. epidermidis titer [2]: 7.1 Log | Log S. marcescens reduction (Serratia marcescens): 0.3 Log | Log S. marcescens titer (Serratia marcescens): 7.3 Log | pH of final mixture [1, 4]: 7.4 | pH of final mixture [1, 5]: 7.8 | pH of final mixture ([1]; Table 10: RBC + 20 mM quencher, no base + 0.2 mM PIC-1): 6.5

CSCC[C@H](N)C(=O)O [methionine, reference compound]
pH of stock quencher [1, 3]: 11.2 | pH of stock quencher ([1]; 600 mM in 8% dextrose + 2 eq. base): 13.1 | pH of final mixture [1, 4]: 7.5 | pH of final mixture [1, 5]: 8
